Reference: patent US20070172423A1, “Composition and method for modulating vasculogenesis for angiogenesis” (priority 1998, published 2007)

Tests used:
[1] = tested on: protease in AG1523 medium processing full-length PDGF-C; experiment: Protease inhibitor analysis of PDGF-C processing by AG1523 medium; assay type: biochemical, human; details: AG1523 serum-free medium, 37° C. overnight, immunoblot
Protocol: To elucidate the mechanism of the proteolysis of PDGF-C a protease inhibitor analysis was conducted. Various protease inhibitors (see Table 1, source: Sigma) were pre-incubated with 0.9 ml of AG1523 serum-free medium at room temperature for 30 minutes, then incubated with 0.2 ml of recombinant full-length PDGF-C (Sf9 serum-free medium) at 37° C. overnight. TCA-precipitated proteins were subjected to SDS-page under reducing conditions and then immunoblotted. Recombinant PDGF-C was detected using an anti-His6 epitope monoclonal antibody (C-terminal) (InVitrogen).

[2] = tested on: bovine aorta endothelial cells (BAEC); experiment: Cell migration assay, BAEC; assay type: cell-based; details: wounded monolayer, 20 hours, serum-free medium
Protocol: (§1) Cell migration assays were performed on growth arrested confluent HMVEC, BAEC or hSMC cells. Cell monolayers were wounded with a rubber policeman and washed with serum-free medium. Dishes were then incubated for 20 hours in serum-free medium containing VEGF165, PDGF-AA, (R&D Systems, Minneapolis USA) or PDGF-CC. Each assay included two dishes per condition and was repeated three times independently. Cells were photographed at 40× magnification, and migration percentage corresponding to the ratio between area of the cells and the total area of the wound (Biocom visiol@b 2000 version 4.52, San Diego). For HMVEC proliferation assay, cells were seeded in 96-well plates (5 wells per condition), and incubated with VEGF, PDGF-AA, or PDGF-CC (50 ng/ml) after serum starvation. After 7 days, viable cells were counted using the cell Titer-glo luminescent cell viability assay. For NIH-3T3 and hSMC proliferation assay, cells cultured in 96-well plates were serum-starved overnight, followed by treatment with growth factors at different concentrations. Two days later, cell numbers were counted and proliferation percentage calculated, using cells cultured in medium containing 10% serum as control. Aortic ring assay was performed as described 51. […] Aortic rings were analysed at day 9 of culturing. […]

HMVEC = HMVEC proliferation assay; assay type: cell-based, human; details: 50 ng/ml, 7 days
Protocol: as §1

aortic rings = experiment: Aortic ring assay; assay type: cell-based; details: for number of sprouting microvessels: day 9 of culturing, versus control
Protocol: Cell migration assays were performed on growth arrested confluent HMVEC, BAEC or hSMC cells. Cell monolayers were wounded with a rubber policeman and washed with serum-free medium. Dishes were then incubated for 20 hours in serum-free medium containing VEGF165, PDGF-AA, (R&D Systems, Minneapolis USA) or PDGF-CC. Each assay included two dishes per condition and was repeated three times independently. Cells were photographed at 40× magnification, and migration percentage corresponding to the ratio between area of the cells and the total area of the wound (Biocom visiol@b 2000 version 4.52, San Diego). For HMVEC proliferation assay, cells were seeded in 96-well plates (5 wells per condition), and incubated with VEGF, PDGF-AA, or PDGF-CC (50 ng/ml) after serum starvation. After 7 days, viable cells were counted using the cell Titer-glo luminescent cell viability assay. For NIH-3T3 and hSMC proliferation assay, cells cultured in 96-well plates were serum-starved overnight, followed by treatment with growth factors at different concentrations. Two days later, cell numbers were counted and proliferation percentage calculated, using cells cultured in medium containing 10% serum as control. Aortic ring assay was performed as described 51. Briefly, one-millimeter long aortic rings were embedded in gels of rat tail interstitial collagen and cultured at 37° C., supplemented with different growth factors (50 ng/ml). Aortic rings were analysed at day 9 of culturing. Experiments included three explants per condition and were repeated at least twice. Aortic rings were photographed at 25× magnification.
Although PDGFR-α is expressed on endothelial cells (Edelberg et al., Journal of Clinical Investigation, 1998 102:837-43; Smits et al., Growth Factors, 1989 2:1-8; Bar et al., Endocrinology, 1989 124:1841-8; Beitz et al., Proc Natl Acad Sci USA, 1991 88:2021-5; Marx et al., J Clin Invest, 1994 93:131-9; Shinbrot et al., Dev. Dyn., 1994 199:169-175), little is known about the functional consequence of PDGFR-α signaling in these cells. […] We also tested the effect of PDGF-CC on cultured aortic rings, as this assay allows assessment of the outgrowth of microvessels from an intact vessel in vitro (Blacher et al., Angiogenesis, 2001 4:133-42). Results are graphically represented as the number of microvessels and the distance over which they grew out from the aortic ring. Each experiment included three explants per condition and was repeated at least twice. At day 9 after culturing, microvessels and the distance of their outgrowth were quantified and evaluated using Student's t test. In baseline conditions, only a small number of microvessels sprouted from the aortic rings—most of them over very short distances (0.25 mm from the aortic ring)—and only a small fraction (<5%) growing out over longer distances (>0.5 mm from the aortic ring, FIG. 41a). VEGF increased not only the number of sprouting microvessels (P<0.001 at all concentrations versus control), but also the distance over which they grew out (P<0.05 at all concentrations versus control; FIG. 41b,f). At 30 ng/ml, PDGF-CC increased the number of microvessels (P<0.001 versus control, FIG. 41e,g) and increased the distance of vessel outgrowth at 5 ng/ml (P<0.01 versus control, FIG. 41g). […] A similar bell-shaped dose-response relationship has been documented for other members of the VEGF/PDGF-superfamily (Jin et al., J Mol Neurosci, 2000 14:197-203). PDGF-AA, however, had no effect on the number of microvessels, although it increased the distance of vessel outgrowth at 5 ng/ml (P<0.01 versus control, FIG. 41h). Thus, PDGF-CC mobilized EC migration in cultured cells and promoted microvessel sprouting in the aortic ring assay.
The mitogenic and chemotactic effect of PDGF-CC was then tested on SMCs and perivascular fibroblast cells, and the effect of PDGF-CC was compared to that of VEGF and PDGF-AA in both cultured cells and the aortic ring assay (Blacher et al., Angiogenesis, 2001 4:133-42). […]

hSMC [3] = experiment: Cell migration assay, hSMC; assay type: cell-based, human; details: wounded monolayer, 20 hours
Protocol: as §1, with “For HMVEC proliferation assay, cells were seeded in 96-well plates (5 wells per condition), and incubated with VEGF, PDGF-AA, or PDGF-CC (50 ng/ml) after serum starvation.” left out, “For NIH-3T3 and hSMC proliferation assay, cells cultured in 96-well plates were serum-starved overnight, followed by treatment with growth factors at different concentrations.” left out, “control.” for “control. Aortic ring assay was performed as described 51.”
The mitogenic and chemotactic effect of PDGF-CC was then tested on SMCs and perivascular fibroblast cells, and the effect of PDGF-CC was compared to that of VEGF and PDGF-AA in both cultured cells and the aortic ring assay (Blacher et al., Angiogenesis, 2001 4:133-42). […] In the aortic ring assay, we quantified the growth and emigration of perivascular fibroblasts from the intact vessel using computer-assisted image analysis after treatment with VEGF and different PDGFs at different concentrations. […]

hSMC [4] = experiment: hSMC proliferation assay; assay type: cell-based, human; details: two days, different concentrations
Protocol: as §1

NIH-3T3 fibroblast cells = experiment: NIH-3T3 proliferation assay; assay type: cell-based; details: two days, different concentrations
Protocol: as §1

[5] = target: T1, human PDGF receptor alpha (Homo sapiens, UniProt P16234); experiment: Competition with 125I-PDGF-BB for binding to PAE-1 cells expressing PDGF alpha-receptor; details: 5 ng/ml 125I-PDGF-BB tracer, on ice 90 minutes
T1 construct: expressed in transfected cells
Protocol: Next, full length and truncated PDGF-C were tested for their capacity to bind to human PDGF receptors alpha and beta by analyzing their abilities to compete with PDGF-BB for binding to PDGF receptors. The binding experiments were performed on porcine aortic endothelial-1 (PAE-1) cells stably expressing the human PDGF receptors alpha and beta (Eriksson et al., EMBO J, 1992, 11, 543-550). Binding experiments were performed essentially as in Heldin et al. (EMBO J, 1988, 7:1387-1393). Different concentrations of human full-length and truncated PDGF-C, or human PDGF-BB were mixed with 5 ng/ml of ^125I-PDGF-BB in binding buffer (PBS containing 1 mg/ml of bovine serum albumin). Aliquots were incubated with the receptor expressing PAE-1 cells plated in 24-well culture dishes on ice for 90 minutes. After three washes with binding buffer, cell-bound 125]-PDGF-BB was extracted by lysis of cells in 20 mM Tris-HCl, pH 7.5, 10% glycerol, 1% Triton X-100. The amount of cell bound radioactivity was determined in a gamma-counter. A standard curve for the binding of ^125I-labeled PDGF BB homodimers to PAE-1 cells expressing PDGF alpha-receptor is shown in FIG. 18.

[6] = tested on: human microvascular endothelial cells (HMVEC); experiment: Cell migration assay, HMVEC; assay type: cell-based; details: wounded monolayer, 20 hours, serum-free medium
Protocol: as §1

[7] = tested on: human bone marrow-derived AC133+CD34+ cells; experiment: Human bone marrow cell adherence and differentiation assay; assay type: cell-based; details: 50 ng/ml
Protocol: Enriched human BM derived AC133+CD34+ cells (Clonetics) at 10^5/ml were cultured for 3 days in HPGM (Clonetics) in a 6-well plate (Becton Dickinson). Cells were then seeded in collagen coated 12-well plates in EBM (Clonetics) medium containing 4% FCS and VEGF165 (R&D Systems) or PDGF-CC (50 ng/ml each). Growth factors were added every two days and media were refreshed at 75% every four days. For adherence assay, 2.5×10^4 of non-adherent cells/ml were cultured in the same condition on chamber slides coated with collagen, or in 96-well plate coated with 0.3% gelatin in PBS. Cells were then washed three times with PBS, fixed and stained with May-Grünwald Giemsa (Sigma) after two weeks of culture on chamber slides (Becton Dickinson). The number of viable cells was estimated by ATP quantification using cellTiter-glo luminescent cell viability assay (Promega) according to the manufacturer's instructions. For cell surface marker staining, cells (2×10^4/well) cultured on collagen-coated culture slides for two or four weeks were fixed (45 min, 25° C.) and permeabilized (45 min, 25° C.) using a Intrastain Kit (DAKO), and then labeled with CD31-FITC (Becton Dickinson), CD144-FITC (Pharmingen), CD34-FITC (Becton Dickinson) or SMC-Actin CY3 (Sigma). Single or double-labeled cells were analyzed using laser confocal immunofluorescence microscopy.
Upon stimulation by growth factors or cytokines, bone marrow stem/progenitor cells can differentiate into ECs and SMCs and thereby contribute to angio/arteriogenesis (Orlic et al., Nature, 2001 410:701-5; Kawamoto et al., Circulation, 2001 103:634-7; Asahara et al., Circ Res, 1999 85:221-8). The potential role of PDGF-CC in the differentiation of bone marrow progenitors into vascular cells has, however, not been investigated thus far. We therefore cultured human bone marrow-derived AC133^+CD34^+ cells—a population enriched for stem/progenitor cells (Miraglia et al., Blood, 1997 90:5013-21; Yu et al., J Biol Chem, 2002 277:20711-6; Donnelly et al., Leuk Lymphoma, 2001 40:221-34)—and stimulated them with PDGF-CC, using VEGF as a control (50 ng/ml each).

T1 sequence (P16234 24-1089): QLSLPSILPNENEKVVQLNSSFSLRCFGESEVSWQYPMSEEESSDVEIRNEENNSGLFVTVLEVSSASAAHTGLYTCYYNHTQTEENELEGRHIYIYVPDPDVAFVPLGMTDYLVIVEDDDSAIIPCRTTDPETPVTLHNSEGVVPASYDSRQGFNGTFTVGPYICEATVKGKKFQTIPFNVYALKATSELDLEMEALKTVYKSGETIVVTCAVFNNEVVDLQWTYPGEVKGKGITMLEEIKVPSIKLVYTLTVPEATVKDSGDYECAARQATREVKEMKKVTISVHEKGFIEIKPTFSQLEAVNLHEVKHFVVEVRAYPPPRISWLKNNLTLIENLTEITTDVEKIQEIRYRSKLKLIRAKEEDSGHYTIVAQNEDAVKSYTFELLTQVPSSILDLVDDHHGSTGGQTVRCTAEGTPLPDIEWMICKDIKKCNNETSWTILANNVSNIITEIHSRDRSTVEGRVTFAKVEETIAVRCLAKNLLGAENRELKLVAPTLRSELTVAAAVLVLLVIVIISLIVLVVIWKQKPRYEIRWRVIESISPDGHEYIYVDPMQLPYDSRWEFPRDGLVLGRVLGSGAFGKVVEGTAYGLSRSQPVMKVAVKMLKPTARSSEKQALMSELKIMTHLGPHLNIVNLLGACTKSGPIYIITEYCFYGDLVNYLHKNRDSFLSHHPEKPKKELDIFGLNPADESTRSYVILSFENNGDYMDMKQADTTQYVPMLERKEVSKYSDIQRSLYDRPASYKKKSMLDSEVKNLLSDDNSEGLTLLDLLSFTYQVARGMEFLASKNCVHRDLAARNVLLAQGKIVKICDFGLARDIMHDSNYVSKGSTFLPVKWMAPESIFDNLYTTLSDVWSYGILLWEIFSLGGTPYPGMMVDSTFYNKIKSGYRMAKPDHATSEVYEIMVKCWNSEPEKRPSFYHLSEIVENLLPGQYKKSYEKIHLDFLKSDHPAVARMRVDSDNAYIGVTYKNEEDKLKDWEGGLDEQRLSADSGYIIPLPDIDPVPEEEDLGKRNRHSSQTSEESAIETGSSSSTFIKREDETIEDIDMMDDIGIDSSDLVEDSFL

Aprotinin
inhibition of proteolytic processing of full-length PDGF-C [1]: capacity to inhibit

PDGF-AA: PDGF A-chain homodimer (R&D Systems), PDGFR-α ligand used as control
migration of BAEC [2]: no effect | EC proliferation (HMVEC): no effect | distance of vessel outgrowth (aortic rings; 5 ng/ml, day 9, versus control): increased | number and emigration of perivascular fibroblast-like cells (aortic rings; day 9, versus control): intermediate effect | number of sprouting microvessels (aortic rings): no effect | hSMC migration (hSMC [3]): stimulated | proliferation of cultured hSMC cells (hSMC [4]): stimulated | proliferation of cultured NIH-3T3 fibroblast cells (NIH-3T3 fibroblast cells): stimulated

PDGF-BB: human PDGF B-chain homodimer, unlabeled competitor and 125I tracer [reference compound]
competition for binding to the PDGF alpha-receptor [5]: competed efficiently

VEGF
EC proliferation (HMVEC): highly stimulated | migration of HMVECs [6]: stimulated | distance over which microvessels grew out (aortic rings; all concentrations, day 9, versus control): increased | number and emigration of perivascular fibroblast-like cells (aortic rings; day 9, versus control): in effective | number of sprouting microvessels (aortic rings): increased | SMA expression ([7]; four weeks): remained SMA negative | expression of CD144 and CD31 ([7]; four weeks): still CD144 and CD31 positive | adherence of AC133+CD34+ cells ([7]; two weeks of stimulation): enhanced | expression of EC surface markers CD144 (VE-cadherin) and CD31 (PECAM) ([7]; two weeks of stimulation): induced | expression of smooth muscle cell marker SMA ([7]; two weeks of stimulation): did not become SMA positive | hSMC migration (hSMC [3]): no effect
